Assays:
U-937 = test: cells; format: functional, cell-based; conditions: Homo sapiens
Description: Cytotoxicity against in human U937 cells

Homo sapiens = species: Homo sapiens; test: Selectivity ratio of IC50 for PI3Kbeta in human U937 cells to IC50 for GST-tagged PI3Kdelta in human U937 cells; format: cell-based
Mus musculus [1] = species: Mus musculus; test: Decrease in eosinophil influx reduction in mouse at 1 ug, it relative to control; format: functional; set-up: scale not given: the % may be the effect or the level left
Mus musculus [2] = species: Mus musculus; test: Decrease in eosinophil influx reduction in mouse at 4 ug, it relative to control; format: functional; set-up: scale not given: the % may be the effect or the level left
Mus musculus [3] = species: Mus musculus; test: Decrease in eosinophil influx reduction in mouse at 20 ug, it relative to control; format: functional; set-up: scale not given: the % may be the effect or the level left
Mus musculus [4] = species: Mus musculus; test: Decrease in neutrophil influx reduction in mouse at 1 ug, it relative to control; format: functional; set-up: scale not given: the % may be the effect or the level left
Mus musculus [5] = species: Mus musculus; test: Decrease in neutrophil influx reduction in mouse at 4 ug, it relative to control; format: functional; set-up: scale not given: the % may be the effect or the level left
Mus musculus [6] = species: Mus musculus; test: Decrease in neutrophil influx reduction in mouse at 20 ug, it relative to control; format: functional; set-up: scale not given: the % may be the effect or the level left
Mus musculus [7] = species: Mus musculus; test: Decrease in number of neutrophils in mouse BAL at 1 ug, it at 2 hrs post dose relative to control; format: functional; set-up: scale not given: the % may be the effect or the level left
Mus musculus [8] = species: Mus musculus; test: Decrease in number of neutrophils in mouse BAL at 4 ug, it at 2 hrs post dose relative to control; format: functional; set-up: scale not given: the % may be the effect or the level left
Mus musculus [9] = species: Mus musculus; test: Decrease in number of neutrophils in mouse BAL at 20 ug, it at 2 hrs post dose relative to control; format: functional; set-up: scale not given: the % may be the effect or the level left
Mus musculus [10] = species: Mus musculus; test: Decrease in number of neutrophils in mouse BAL at 4 ug, it at 8 hrs post dose relative to control; format: functional; set-up: scale not given: the % may be the effect or the level left
Mus musculus [11] = species: Mus musculus; test: Decrease in number of neutrophils in mouse BAL at 4 ug, it at 12 hrs post dose relative to control; format: functional; set-up: scale not given: the % may be the effect or the level left
Rattus norvegicus [12] = species: Rattus norvegicus; test: Decrease in number of neutrophils in rat BAL at 5 ug, it at 2 hrs post dose relative to control; format: functional; set-up: scale not given: the % may be the effect or the level left
Rattus norvegicus [13] = species: Rattus norvegicus; test: Decrease in number of neutrophils in rat BAL at 20 ug, it at 2 hrs post dose relative to control; format: functional; set-up: scale not given: the % may be the effect or the level left
Rattus norvegicus [14] = species: Rattus norvegicus; test: Decrease in number of neutrophils in rat BAL at 100 ug, it at 2 hrs post dose relative to control; format: functional; set-up: scale not given: the % may be the effect or the level left
Rattus norvegicus [15] = species: Rattus norvegicus; test: Decrease in number of neutrophils in rat BAL at 20 ug, it at 8 hrs post dose relative to control; format: functional; set-up: scale not given: the % may be the effect or the level left
Rattus norvegicus [16] = species: Rattus norvegicus; test: Decrease in number of neutrophils in rat BAL at 20 ug, it at 12 hrs post dose relative to control; format: functional; set-up: scale not given: the % may be the effect or the level left

`COCCOCCOCC#Cc1cccc2nc(Cn3nc(-c4cc(O)cc(F)c4)c4c(N)ncnc43)n(Cc3ccccc3C(F)(F)F)c(=O)c12` showed an IC50 (U-937) of 7.4 nM, a Ratio IC50 (Homo sapiens) of 2000 and an Activity (Mus musculus [1]) of 20%. For the same compound, the Activity (Mus musculus [2]) was 85%, the Activity (Mus musculus [3]) was 91% and the Activity (Mus musculus [4]) was 18%. The Activity (Mus musculus [5]) was 70%, the Activity (Mus musculus [6]) was 80% and the Activity (Mus musculus [7]) was 19%. It also gave an Activity (Mus musculus [8]) of 53%, an Activity (Mus musculus [9]) of 68% and an Activity (Mus musculus [10]) of 45%. It also gave an Activity (Mus musculus [11]) of 23%, an Activity (Rattus norvegicus [12]) of 9% and an Activity (Rattus norvegicus [13]) of 58%. It also gave an Activity (Rattus norvegicus [14]) of 73%, an Activity (Rattus norvegicus [15]) of 33% and an Activity (Rattus norvegicus [16]) of 10%.
